In ChEMBL document CHEMBL4316596, “Antimicrobial Peptides with High Proteolytic Resistance for Combating Gram-Negative Bacteria” (J Med Chem, 2019):
One block for each substance: values may come before it. Activity calls are given as the source filed them. The calls are words filed in the database; no cut-off is given here.

Experiments:
Escherichia coli [1] = assay: Bactericidal activity against Escherichia coli ATCC 25922 incubated for 4 hrs followed by culture spread on agar plates and cultured overnight in presence of 1 mg/ml chymotrypsin; assay type: functional; conditions: ATCC 25922, 4 h, read-out: MBC>99.9
Acinetobacter baumannii = assay: Antimicrobial activity against Acinetobacter baumannii after 24 hrs by NCCLS-protocol based assay; assay type: functional
Escherichia coli [2] = assay: Bactericidal activity against Escherichia coli ATCC 25922 incubated for 4 hrs followed by culture spread on agar plates and cultured overnight in presence of MgCl2; assay type: functional; conditions: ATCC 25922, 4 h, read-out: MBC>99.9
[3] = Selectivity ratio of HC10 for human RBC to geometric mean of the peptide MBC for bacteria
[4] = Selectivity ratio of IC50 for mouse RAW264.7 cells to geometric mean of the peptide MBC for bacteria
Pseudomonas aeruginosa [5] = assay: Bactericidal activity against Pseudomonas aeruginosa CICC 21630 clinical isolates incubated for 4 hrs followed by culture spread on agar plates and cultured overnight; assay type: functional; conditions: CICC 21630, 4 h, read-out: MBC>99.9
Escherichia coli [6] = assay: Bactericidal activity against Escherichia coli ATCC 25922 incubated for 4 hrs followed by culture spread on agar plates and cultured overnight in presence of 0.25 mg/ml trypsin; assay type: functional; conditions: ATCC 25922, 4 h, read-out: MBC>99.9
HEK-293T = assay: Cytotoxicity against HEK293T cells assessed as cell death after 18 to 24 hrs by MTT assay; assay type: cell-based; conditions: Homo sapiens
Escherichia coli [7] = assay: Bactericidal activity against Escherichia coli ATCC 25922 incubated for 4 hrs followed by culture spread on agar plates and cultured overnight in presence of 25% serum albumin; assay type: functional; conditions: ATCC 25922, 4 h, read-out: MBC>99.9
Salmonella typhimurium = assay: Antimicrobial activity against Salmonella typhimurium ATCC 14028 after 24 hrs by NCCLS-protocol based assay; assay type: functional, Salmonella enterica subsp. enterica serovar Typhimurium; conditions: Salmonella enterica, ATCC 14028, 24 h
Pseudomonas aeruginosa [8] = assay: Antimicrobial activity against Pseudomonas aeruginosa ATCC 27853 after 24 hrs by NCCLS-protocol based assay; assay type: functional; conditions: ATCC 27853, 24 h
Escherichia coli [9] = assay: Bactericidal activity against Escherichia coli ATCC 25922 incubated for 4 hrs followed by culture spread on agar plates and cultured overnight in presence of 4 mg/ml pepsin; assay type: functional, organism-based
Klebsiella pneumoniae = assay: Antimicrobial activity against Klebsiella pneumoniae after 24 hrs by NCCLS-protocol based assay; assay type: functional
Escherichia coli [10] = assay: Bactericidal activity against Escherichia coli ATCC 25922 incubated for 4 hrs followed by culture spread on agar plates and cultured overnight in presence of 0.5 mg/ml trypsin; assay type: functional; conditions: ATCC 25922, 4 h, read-out: MBC>99.9
Escherichia coli [11] = assay: Bactericidal activity against Escherichia coli ATCC 25922 incubated for 4 hrs followed by culture spread on agar plates and cultured overnight in presence of 0.5 mg/ml chymotrypsin; assay type: functional; conditions: ATCC 25922, 4 h, read-out: MBC>99.9
Escherichia coli [12] = assay: Bactericidal activity against Escherichia coli ATCC 25922 incubated for 4 hrs followed by culture spread on agar plates and cultured overnight in presence of 0.125 mg/ml trypsin; assay type: functional; conditions: ATCC 25922, 4 h, read-out: MBC>99.9
Escherichia coli [13] = assay: Bactericidal activity against Escherichia coli ATCC 25922 incubated for 4 hrs followed by culture spread on agar plates and cultured overnight in presence of 1 mg/ml trypsin; assay type: functional; conditions: ATCC 25922, 4 h, read-out: MBC>99.9
Escherichia coli [14] = assay: Antimicrobial activity against Escherichia coli UB1005 after 24 hrs by NCCLS-protocol based assay; assay type: functional; conditions: UB1005, 24 h
Escherichia coli [15] = assay: Bactericidal activity against Escherichia coli K99 incubated for 4 hrs followed by culture spread on agar plates and cultured overnight; assay type: functional; conditions: K99, 4 h, read-out: MBC>99.9
Escherichia coli [16] = assay: Bactericidal activity against Escherichia coli ATCC 25922 incubated for 4 hrs followed by culture spread on agar plates and cultured overnight; assay type: functional; conditions: ATCC 25922, 4 h, read-out: MBC>99.9
Pseudomonas aeruginosa [17] = assay: Bactericidal activity against Pseudomonas aeruginosa ATCC 27853 incubated for 4 hrs followed by culture spread on agar plates and cultured overnight; assay type: functional; conditions: ATCC 27853, 4 h, read-out: MBC>99.9
Escherichia coli [18] = assay: Bactericidal activity against Escherichia coli ATCC 25922 incubated for 4 hrs followed by culture spread on agar plates and cultured overnight in presence of 2 mg/ml trypsin; assay type: functional; conditions: ATCC 25922, 4 h, read-out: MBC>99.9
Escherichia coli [19] = assay: Bactericidal activity against Escherichia coli ATCC 25922 incubated for 4 hrs followed by culture spread on agar plates and cultured overnight in presence of FeCl3; assay type: functional; conditions: ATCC 25922, 4 h, read-out: MBC>99.9
Escherichia coli [20] = assay: Bactericidal activity against Escherichia coli ATCC 25922 incubated for 4 hrs followed by culture spread on agar plates and cultured overnight in presence of 2 mg/ml chymotrypsin; assay type: functional; conditions: ATCC 25922, 4 h, read-out: MBC>99.9
[21] = Selectivity ratio of IC50 for HEK293T cells to geometric mean of the peptide MBC for bacteria
[22] = Bactericidal activity against Salmonella pullorum C7913 incubated for 4 hrs followed by culture spread on agar plates and cultured overnight; assay type: functional, Salmonella enterica subsp. enterica serovar Pullorum; conditions: Salmonella enterica, C7913, 4 h; read-out: MBC>99.9
Escherichia coli [23] = assay: Bactericidal activity against Escherichia coli ATCC 25922 incubated for 4 hrs followed by culture spread on agar plates and cultured overnight in presence of 0.125 mg/ml chymotrypsin; assay type: functional; conditions: ATCC 25922, 4 h, read-out: MBC>99.9
Escherichia coli [24] = assay: Bactericidal activity against Escherichia coli ATCC 25922 incubated for 4 hrs followed by culture spread on agar plates and cultured overnight in presence of ZnCl2; assay type: functional; conditions: ATCC 25922, 4 h, read-out: MBC>99.9
Pseudomonas aeruginosa [25] = assay: Antimicrobial activity against Pseudomonas aeruginosa 26305 clinical isolates after 24 hrs by NCCLS-protocol based assay; assay type: functional; conditions: Pseudomonas aeruginosa, 26305, 24 h
Escherichia coli [26] = assay: Antibacterial activity against Escherichia coli ATCC 25922 infected in ICR mouse assessed as log reduction in bacterial cells in spleen at 5 mg/kg, ip administered at 5 mg/kg, ip dosed at 0.5, 2, 4 and 8 hrs post-infection; assay type: functional
Escherichia coli [27] = assay: Bactericidal activity against Escherichia coli ATCC 25922 incubated for 4 hrs followed by culture spread on agar plates and cultured overnight in presence of NH4Cl; assay type: functional; conditions: ATCC 25922, 4 h, read-out: MBC>99.9
Escherichia coli [28] = assay: Bactericidal activity against Escherichia coli ATCC 25922 incubated for 4 hrs followed by culture spread on agar plates and cultured overnight in presence of 4 mg/ml chymotrypsin; assay type: functional; conditions: ATCC 25922, 4 h, read-out: MBC>99.9
Escherichia coli [29] = assay: Antibacterial activity against Escherichia coli ATCC 25922 infected in ICR mouse assessed as mouse survival at 5 mg/kg, ip dosed at 0.5, 2, 4 and 8 hrs post-infection; assay type: functional; conditions: ATCC 25922, ip
Escherichia coli [30] = assay: Bactericidal activity against Escherichia coli ATCC 25922 incubated for 4 hrs followed by culture spread on agar plates and cultured overnight in presence of NaCl; assay type: functional; conditions: ATCC 25922, 4 h, read-out: MBC>99.9
Pseudomonas aeruginosa [31] = assay: Bactericidal activity against Pseudomonas aeruginosa 26305 clinical isolates incubated for 4 hrs followed by culture spread on agar plates and cultured overnight; assay type: functional; conditions: Pseudomonas aeruginosa, 26305, 4 h; read-out: MBC>99.9
Pseudomonas aeruginosa [32] = assay: Antimicrobial activity against Pseudomonas aeruginosa CICC 21625 clinical isolates after 24 hrs by NCCLS-protocol based assay; assay type: functional; conditions: CICC 21625, 24 h
Escherichia coli [33] = assay: Bactericidal activity against Escherichia coli ATCC 25922 incubated for 4 hrs followed by culture spread on agar plates and cultured overnight in presence of 0.25 mg/ml chymotrypsin; assay type: functional; conditions: ATCC 25922, 4 h, read-out: MBC>99.9
Escherichia coli [34] = assay: Antibacterial activity against Escherichia coli ATCC 25922 infected in ICR mouse assessed as log reduction in bacterial cells in peritoneal cavity at 5 mg/kg, ip administered at 5 mg/kg, ip dosed at 0.5, 2, 4 and 8 hrs post-infection; assay type: functional
Escherichia coli [35] = assay: Bactericidal activity against Escherichia coli ATCC 25922 incubated for 4 hrs followed by culture spread on agar plates and cultured overnight in presence of KCl; assay type: functional; conditions: ATCC 25922, 4 h, read-out: MBC>99.9

Substance: H-IRPIIRPIIRPIIRPIIRPIIRPIIRPI-NH2
MBC (Escherichia coli [1]): 2 µM
MIC95 (Acinetobacter baumannii): 1 µM
MBC (Escherichia coli [2]): 2 µM
Ratio [3]: 51.5
Ratio [4]: 1136.22
MBC (Pseudomonas aeruginosa [5]): 32 µM
MBC (Escherichia coli [6]): 2 µM
IC50 (HEK-293T): 324 µM
MBC (Escherichia coli [7]): 8 µM
MIC95 (Salmonella typhimurium): 2 µM
MIC95 (Pseudomonas aeruginosa [8]): 4 µM
Activity (Escherichia coli [9]): Active
MIC95 (Klebsiella pneumoniae): 2 µM
MBC (Escherichia coli [10]): 2 µM
MBC (Escherichia coli [11]): 2 µM
MBC (Escherichia coli [12]): 2 µM
MBC (Escherichia coli [13]): 2 µM
MIC95 (Escherichia coli [14]): 2 µM
MBC (Escherichia coli [15]): 2 µM
MBC (Escherichia coli [16]): 2 µM
MBC (Pseudomonas aeruginosa [17]): 8 µM
MBC (Escherichia coli [18]): 2 µM
MBC (Escherichia coli [19]): 2 µM
MBC (Escherichia coli [20]): 2 µM
Ratio [21]: 65.19
MBC [22]: 4 µM
MBC (Escherichia coli [23]): 2 µM
MBC (Escherichia coli [24]): 2 µM
MIC95 (Pseudomonas aeruginosa [25]): 32 µM
log(activity) (Escherichia coli [26]): 1.6
MBC (Escherichia coli [27]): 2 µM
MBC (Escherichia coli [28]): 2 µM
survival at 5 mg/kg (Escherichia coli [29]): 75%
MBC (Escherichia coli [30]): 8 µM
MBC (Pseudomonas aeruginosa [31]): 64 µM
MIC95 (Pseudomonas aeruginosa [32]): 64 µM
MBC (Escherichia coli [33]): 2 µM
log(activity) (Escherichia coli [34]): 5
MBC (Escherichia coli [35]): 2 µM

MIC95 (Acinetobacter baumannii): 2 µM
MIC95 (Salmonella typhimurium): 64 µM
MIC95 (Pseudomonas aeruginosa [8]): > 64 µM
MIC95 (Klebsiella pneumoniae): 16 µM
MIC95 (Escherichia coli [14]): 4 µM
MIC95 (Pseudomonas aeruginosa [25]): > 64 µM
MIC95 (Pseudomonas aeruginosa [32]): > 64 µM
Substance: H-IKPIIKPIIKPIIKPIIKPIIKPIIKPI-NH2
MBC (Escherichia coli [1]): 16 µM
MBC (Escherichia coli [2]): 64 µM
Ratio [3]: 7.03
Ratio [4]: 75.44
MBC (Pseudomonas aeruginosa [5]): > 64 µM
MBC (Escherichia coli [6]): 16 µM
IC50 (HEK-293T): 5920 µM
MBC (Escherichia coli [7]): > 128 µM
Activity (Escherichia coli [9]): inactive
MBC (Escherichia coli [10]): 16 µM
MBC (Escherichia coli [11]): 16 µM
MBC (Escherichia coli [12]): 16 µM
MBC (Escherichia coli [13]): 16 µM
MBC (Escherichia coli [15]): 4 µM
MBC (Escherichia coli [16]): 16 µM
MBC (Pseudomonas aeruginosa [17]): > 64 µM
MBC (Escherichia coli [18]): 16 µM
MBC (Escherichia coli [19]): 64 µM
MBC (Escherichia coli [20]): 16 µM
Ratio [21]: 162.49
MBC [22]: > 64 µM
MBC (Escherichia coli [23]): 16 µM
MBC (Escherichia coli [24]): 32 µM
MBC (Escherichia coli [27]): 16 µM
MBC (Escherichia coli [28]): 16 µM
MBC (Escherichia coli [30]): > 128 µM
MBC (Pseudomonas aeruginosa [31]): > 64 µM
MBC (Escherichia coli [33]): 16 µM
MBC (Escherichia coli [35]): 32 µM

Substance: H-LRPLLRPLLRPLLRPLLRPLLRPLLRPL-NH2
MBC (Escherichia coli [1]): > 64 µM
MIC95 (Acinetobacter baumannii): 1 µM
MBC (Escherichia coli [2]): 2 µM
Ratio [3]: 24.7
Ratio [4]: 0.89
MBC (Pseudomonas aeruginosa [5]): 4 µM
MBC (Escherichia coli [6]): 2 µM
IC50 (HEK-293T): 19.2 µM
MBC (Escherichia coli [7]): 8 µM
MIC95 (Salmonella typhimurium): 1 µM
MIC95 (Pseudomonas aeruginosa [8]): 1 µM
Activity (Escherichia coli [9]): inactive
MIC95 (Klebsiella pneumoniae): 2 µM
MBC (Escherichia coli [10]): 2 µM
MBC (Escherichia coli [11]): 2 µM
MBC (Escherichia coli [12]): 2 µM
MBC (Escherichia coli [13]): 2 µM
MIC95 (Escherichia coli [14]): 2 µM
MBC (Escherichia coli [15]): 2 µM
MBC (Escherichia coli [16]): 2 µM
MBC (Pseudomonas aeruginosa [17]): 4 µM
MBC (Escherichia coli [18]): 2 µM
MBC (Escherichia coli [19]): 2 µM
MBC (Escherichia coli [20]): > 64 µM
Ratio [21]: 7.42
MBC [22]: 2 µM
MBC (Escherichia coli [23]): 2 µM
MBC (Escherichia coli [24]): 2 µM
MIC95 (Pseudomonas aeruginosa [25]): 2 µM
log(activity) (Escherichia coli [26]): 1
MBC (Escherichia coli [27]): 2 µM
MBC (Escherichia coli [28]): > 64 µM
survival at 5 mg/kg (Escherichia coli [29]): 37.5%
MBC (Escherichia coli [30]): 4 µM
MBC (Pseudomonas aeruginosa [31]): 8 µM
MIC95 (Pseudomonas aeruginosa [32]): 8 µM
MBC (Escherichia coli [33]): 2 µM
log(activity) (Escherichia coli [34]): 1
MBC (Escherichia coli [35]): 2 µM
